Test results reported in article PMC4806436, “Disrupted ADP-ribose metabolism with nuclear Poly (ADP-ribose) accumulation leads to different cell death pathways in presence of hydrogen peroxide in procyclic Trypanosoma brucei” (Parasites & Vectors, 2016).
“Also recorded” adds a separate entry of the source. Where two headings read alike, the source gives them in different places.

How the values were obtained:
TbPARP = TbPARP (Trypanosoma brucei brucei, UniProt Q0PW89); assay: biochemical; settings: 5 nM TbPARP, 500 nM NAD+, 11 min at 25 °C, mean of three dose-response curves
Protocol: The optimal conditions for the activity of purified recombinant TbPARP, were determined by using a fluorometric activity assay. Incubation at 25 °C with shaking at 300 rpm was placed in propylene plates of 96 wells (Greiner BioOne). To terminate the reaction 2 M KOH (20 μL) and 20 % acetophenone in ethanol (20 μL) were added to each well. After incubating for 10 min at 4 °C, 90 μl of 88 % formic acid was added and incubated in an oven at 110 °C for 5 min. This reaction converts remaining NAD^+ to a fluorescent derivative. After incubation, the plate was allowed to cool down for 15 min and fluorescence was measured using excitation wavelengths of 372 nm and 444 nm for excitation and emission, respectively (Varioskan Flash 4.00.53, Thermo Scientific). Consumption of NAD^+ was detected by the decrease in fluorescence. Experiments were done in triplicates. The activity in control wells were kept under 25 % by optimizing the protein concentration and the incubation time, in order to get a robust signal without slowing down the enzyme activity.
A small set of cations was also tested in order to verify whether the enzymatic activity would depend on them. […] The final assay buffer was 100 mM Na2HPO4/NaH2PO4 pH 7, 500 μM TCEP, 1 μg/μL BSA, and 0.025 mg/mL activated DNA (Sigma Aldrich) and 500 nM NAD^+ (Sigma Aldrich).
Thirty - one compounds were tested. Dilutions from DMSO stocks were made (100 μM, 10 μM and 1 μM) and aliquots of those were used in the enzymatic reaction with 10-fold dilution. Inhibitor solutions were added in triplicates to the plate, followed by the addition of the NAD^+. Reactions were initiated by addition of TbPARP diluted in the same buffer (10 nM). The plate was incubated at 25 °C with shaking (300 rpm, Biosan PST-100 HL) for 45 min. […] To detect any potential fluorescence inherent in the compounds, control reactions were carried out separately with compound alone at 10 μM final concentration. The possible fluorescence quenching properties were controlled using wells within the experimental plate containing the compound with 500 nM NAD^+ in the assay buffer.
The IC50 value for 3-AB (Alexis Biochemicals) was also determined to be used as a reference. Briefly, reaction mix together with the inhibitors at half log dilutions were added to a 96-well plate (10 data points). Reactions were incubated for 11 min at 25 °C after initiating the reaction with the addition of 5 nM TbPARP at a final volume of 50 μL. Measurement of the remaining NAD^+ is described in section Screening of TbPARP inhibitors. All reactions were performed in triplicates and three independent dose response curves were fitted for each inhibitor. Control wells with only NAD^+ or NAD^+ and enzyme were used in the curve fitting, as detailed in our previous work.

TcPARP = system: TcPARP; parameters: method as in PMID 23049934; settings: read-out: potency towards TcPARP; cited from earlier work
[1] = system: Trypanosoma brucei bloodstream parasites; assay: Effect of inhibitors on bloodstream parasite growth (Neubauer count, 24 h); format: cell-based; settings: Olaparib 29 nM, Rucaparib 1.5 μM, 3-AB 580 μM, Nifurtimox 2.5 μM
Protocol: Trypanosoma brucei bloodstream parasites were grown in HMI-11 medium for 24 h until reaching a density of 5×10^5 cells/mL. Aliquots of 100 μL were distributed in 96-well plates and inhibitors were added at different concentrations as indicated in the figures. After an incubation period of 24 h, the parasite number was counted with a Neubauer chamber. In all experiments, triplicates were done for each condition tested and data significance was assessed by one-way Anova (GraphPad Prism5.03 version Software).

[2] = system: PAR formation in procyclic T. brucei; assay: In culture inhibition of PAR formation after H2O2, Dot blot, procyclic form; format: cell-based, Trypanosoma brucei; settings: inhibitor at 10-fold in vitro IC50 (0.23 μM 4-ANI; 65 nM EB-47; 29 nM Olaparib; 1.5 μM Rucaparib), 30 min preincubation, 500 μM H2O2 10 min
Protocol: (§1) T. brucei procyclic strain 29–13 [29] was cultured at 28 °C in SDM-79 (Bioscience) containing 10 % (v/v) FCS and 0002 % hemin. T. brucei bloodstream strain 427 90-13 [29] was cultured at 37 °C in HMI-11 (Iscore’s Modified Dulbecco’s Medium (Invitrogen), 100 mg/L sodium pyruvate, 136.1 mg/L hypoxantine, 38.7 mg/L thymidine, 28.22 mg/L bathocuproinedisulfonic acid, 181.8 mg/L L-cysteine, 3.024 mg/L sodium carbonate, 196 μM β-mercaptoethanol) containing FCS (10 % v/v). Parasite viability was analyzed by microscopy.
(§2) For in culture inhibition assays, parasites of the procyclic form of Trypanosoma brucei were grown for 48 h up to a density of 5×10^6 parasites/mL. Parasites of the bloodstream form were grown for 24 h up to a density of 5×10^5 parasites/mL. In both cases, cells were harvested and preincubated for 30 min or 10 min in PBS-Glucose 2 % with inhibitors added, after which the parasites were treated with 500 μM or 250 μM hydrogen peroxide for procyclic and bloodstream forms, respectively, for 10 min.

[3] = system: PAR formation in bloodstream T. brucei; assay: In culture inhibition of PAR formation after H2O2, Dot blot, bloodstream form; format: cell-based, Trypanosoma brucei; settings: inhibitor at 10-fold in vitro IC50 (29 nM Olaparib; 1.5 μM Rucaparib), 10 min preincubation, 250 μM H2O2
Protocol: as §1, §2

[4] = system: Trypanosoma brucei procyclic parasites; assay: Effect of inhibitors on procyclic parasite growth (OD600, 48 h); format: cell-based
Protocol: Trypanosoma brucei procyclic parasites were grown in SDM-79 medium for 48 h until reaching a density of 5×10^6 cells/mL. Aliquots of 200 μl were distributed in 96-well plates and inhibitors were present at different final concentrations, as indicated in the figures. Nifurtimox (NFX) was used as a positive control in concentrations ranging from 0.25–25 μM. Culture density was checked by OD600 after 48 h.
In all experiments, triplicates were done for each condition tested and data significance was assessed by one-way Anova (GraphPad Prism5.03 version Software).

Sequence of TbPARP (Q0PW89 entry or part of it): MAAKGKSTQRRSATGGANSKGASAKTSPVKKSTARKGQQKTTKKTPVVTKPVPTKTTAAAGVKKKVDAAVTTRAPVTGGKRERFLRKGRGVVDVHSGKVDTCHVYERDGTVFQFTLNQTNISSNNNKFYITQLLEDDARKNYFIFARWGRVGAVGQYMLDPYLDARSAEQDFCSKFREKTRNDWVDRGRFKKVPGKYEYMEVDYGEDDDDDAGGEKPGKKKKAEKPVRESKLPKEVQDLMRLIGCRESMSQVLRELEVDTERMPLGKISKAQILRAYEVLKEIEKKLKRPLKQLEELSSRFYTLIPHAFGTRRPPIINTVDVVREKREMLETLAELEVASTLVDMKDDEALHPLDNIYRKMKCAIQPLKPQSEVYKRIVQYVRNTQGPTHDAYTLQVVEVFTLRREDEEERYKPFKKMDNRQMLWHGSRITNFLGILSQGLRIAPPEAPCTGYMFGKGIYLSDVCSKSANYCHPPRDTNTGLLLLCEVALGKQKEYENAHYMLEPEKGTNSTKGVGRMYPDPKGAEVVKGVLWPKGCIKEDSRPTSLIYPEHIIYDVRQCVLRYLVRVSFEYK

In the case of `CNCc1ccc(-c2[nH]c3cc(F)cc4c3c2CCNC4=O)cc1` [Rucaparib, 6-fluoro-2-{4-[(methylamino)methyl]phenyl}-3,10-diazatricyclo[6.4.1.0^{4,13}]trideca-1,4(13),5,7-tetraen-9-one], the IC50 (TbPARP; read-out: TbPARP IC50) is given as 0.15 µM, the IC50 (TbPARP; read-out: TbPARP pIC50 ± SEM (converted)) is given as 0.148 µM and the IC50 (TcPARP) is given as 0.025 µM. For the same compound, the “effect on bloodstream parasite growth” value [1] was “not able to significantly affect T. brucei growth or survival”, the “inhibition of PAR formation in culture, procyclic form” value [2] was “inhibited PAR formation in culture; also recorded: able to reduce PAR formation” and the “inhibition of PAR formation in culture, bloodstream form” value [3] was “able to inhibit PAR formations in culture; also recorded: able to reduce PAR formation”. The “impact on growth rate of procyclic parasites” value ([4]; 15 μM (highest concentration)) was “visible impact on the growth rate” and the “decrease in procyclic parasite growth” value ([4]; 15 μM, 48 h) was 20%.
